Experimental data from the supplement of paper PMC10307832.

How the values were obtained:
Experiment in all cases: relative viability (nuclei count vs DMSO), 5 days (fraction); higher = more cells survive
[1] = compound: CCN1C(=O)C2=CC(=C(N=C2N(C1=O)C3CC3)N)C(=O)N + CC(C)C[C@H](NC(=O)[C@H](Cc1ccccc1)NC(=O)c1cnccn1)B(O)O [Bortezomib] (partner 0.002 µM)
How it was run: (§1)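 Each reported value is a median over duplicate plates. It expresses relative viability: treated-well nuclei count divided by vehicle-well nuclei count. Lung cancer cell lines in 1536-well plates were dosed by pin tool a day after seeding, alone with one drug or with a fixed anchor-drug dose plus five library-drug doses (not always all listed) in √10 steps, and nuclei were counted after 5 days.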

[2] = compound: CCN1C(=O)C2=CC(=C(N=C2N(C1=O)C3CC3)N)C(=O)N + NC(=O)Nc1cc(-c2cccc(F)c2)sc1C(=O)N[C@H]1CCCNC1 [AZD7762] (partner 0.2 µM)
How it was run: as §1

[3] = compound: CCN1C(=O)C2=CC(=C(N=C2N(C1=O)C3CC3)N)C(=O)N + C[C@]1(O)C[C@@H](c2nc(-c3ccc4ccc(-c5ccccc5)nc4c3)c3c(N)nccn32)C1 [Linsitinib] (partner 1 µM)
How it was run: as §1

[4] = compound: CCN1C(=O)C2=CC(=C(N=C2N(C1=O)C3CC3)N)C(=O)N + Nc1ncn([C@H]2C[C@H](O)[C@@H](CO)O2)c(=O)n1 [Decitabine] (partner 2 µM)
How it was run: as §1

[5] = compound: CCN1C(=O)C2=CC(=C(N=C2N(C1=O)C3CC3)N)C(=O)N + N=C(N)NC(=N)NCCc1ccccc1 [Phenformin] (partner 250 µM)
How it was run: as §1

| Cell Line | relative viability ([1]; first compound 0.253 µM) | relative viability ([1]; first compound 0.8 µM) | relative viability ([1]; first compound 2.53 µM) | relative viability ([1]; first compound 8 µM) | relative viability ([2]; first compound 0.253 µM) | relative viability ([2]; first compound 0.8 µM) | relative viability ([2]; first compound 2.53 µM) | relative viability ([2]; first compound 8 µM) | relative viability ([3]; first compound 0.253 µM) | relative viability ([3]; first compound 0.8 µM) | relative viability ([3]; first compound 2.53 µM) | relative viability ([3]; first compound 8 µM) | relative viability ([4]; first compound 0.253 µM) | relative viability ([4]; first compound 0.8 µM) | relative viability ([4]; first compound 2.53 µM) | relative viability ([4]; first compound 8 µM) | relative viability ([5]; first compound 0.8 µM) | relative viability ([5]; first compound 2.53 µM) | relative viability ([5]; first compound 8 µM) | relative viability ([5]; first compound 0.253 µM) |
| --- | --- | --- | --- | --- | --- | --- | --- | --- | --- | --- | --- | --- | --- | --- | --- | --- | --- | --- | --- | --- |
| NCI-H1666 | 0.739 | 0.692 | 0.848 | 0.74 | 0.888 | 0.824 | 0.909 | 0.84 | 0.805 | 0.766 | 0.792 | 0.779 | 0.615 | 0.688 | 0.728 | 0.68 | 0.562 | 0.58 | 0.558 | – |
| NCI-H1734 | 0.953 | 0.999 | 0.918 | 1 | 0.514 | 0.543 | 0.51 | 0.566 | 0.837 | 0.849 | 0.852 | 0.884 | 0.499 | 0.488 | 0.502 | 0.565 | 0.365 | 0.384 | 0.361 | 0.381 |
| NCI-H1755 | 0.949 | 0.966 | 0.921 | 0.948 | 0.522 | 0.496 | 0.408 | 0.533 | 1.02 | 0.997 | 1.01 | 0.942 | 0.771 | 0.743 | 0.704 | 0.652 | 0.607 | 0.381 | 0.665 | 0.647 |
| NCI-H1792 | 0.983 | 0.861 | 1.03 | 1.06 | 0.779 | 0.624 | 0.693 | 0.508 | 0.551 | 0.624 | 0.59 | 0.559 | 0.652 | 0.54 | 0.494 | 0.576 | 0.237 | 0.367 | 0.352 | 0.224 |
| NCI-H1915 | 0.968 | 0.93 | 0.955 | 0.955 | 0.722 | 0.7 | 0.712 | 0.594 | 1.09 | 1.1 | 1.08 | 1.06 | 0.243 | 0.261 | 0.252 | 0.249 | 0.362 | 0.376 | 0.36 | 0.367 |
| NCI-H1975 | 0.378 | 0.423 | 0.413 | 0.439 | 0.758 | 0.622 | 0.83 | 0.7 | 0.981 | 0.955 | 0.882 | 1.04 | 0.352 | 0.401 | 0.388 | 0.365 | 0.417 | 0.406 | 0.375 | 0.416 |
| NCI-H1993 | 1.05 | 0.925 | 0.983 | 1.11 | 0.74 | 0.805 | 0.847 | 0.771 | 0.732 | 0.784 | 0.7 | 0.777 | 0.677 | 0.586 | 0.555 | 0.701 | 0.457 | 0.524 | 0.438 | 0.526 |
| NCI-H2085 | 0.971 | 1.1 | 1.04 | 0.996 | 0.989 | 0.915 | 0.921 | 1.04 | 0.969 | 0.754 | 0.799 | 0.863 | 0.566 | 0.522 | 0.563 | 0.524 | 0.666 | 0.752 | 0.684 | 0.737 |
